Structures can show the parent of a compound that is named as a salt.
Columns and labels:
[1] = Sorafenib first-dose pharmacokinetics in patients; type: in vivo, human; details: for CL/F (apparent oral clearance): first dose (day 1); for Ka: first dose; for Cmax / Tmax / half-life: human, plasma, po
[2] = Sorafenib and sorafenib N-oxide steady-state plasma concentrations, course 1; type: in vivo, human; details: for concentration at 7 day / concentration at 13 day / concentration at 21 day: human, plasma, oral
[3] = test system: circulating endothelial cells (CECs); assay: Six-color flow cytometry of blood; type: in vivo, human; details: day 21, p = 0.01
[4] = single-agent sorafenib, mean; cited from earlier work
[5] = pediatric phase I single agent study, cited from earlier work
refractory solid tumors = details: cited from earlier work
[6] = human, in vivo, po
[7] = once daily by mouth, in the combination
clinical = details: human, in vivo, po, 50 mg/m2
[8] = in vivo, cited from earlier work
[9] = sorafenib 90 mg/m^2 oral, n 11, median (range)
[10] = sorafenib 110 mg/m^2 oral, n 4, median (range)
[11] = sorafenib 90 mg/m^2 twice daily, n 13, median (range)
[12] = sorafenib 110 mg/m^2 twice daily, n 4, median (range)

Molecule: CNC(=O)c1cc(Oc2ccc(NC(=O)Nc3ccc(Cl)c(C(F)(F)F)c3)cc2)ccn1 [sorafenib, Sorafenib tosylate]
- CL/F (apparent oral clearance) [1, 9]: 44 mL/min/m^2
- CL/F (apparent oral clearance) [1, 10]: 39 mL/min/m^2
- Ka [1, 9]: 0.10 (0.038 – 0.72) h^−1
- Ka [1, 10]: 0.093 (0.080 – 0.15) h^−1
- Cmax ([1]; 90 mg/m2): 1100 ng/mL
- Tmax ([1]; 90 mg/m2): 8.7 h
- half-life ([1]; 90 mg/m2): 5.5 h
- Cmax ([1]; 110 mg/m2): 1600 ng/mL
- Tmax ([1]; 110 mg/m2): 11 h
- half-life ([1]; 110 mg/m2): 10 h
- concentration at 7 day ([2]; 90 mg/m^2 twice daily): 3500 ng/mL
- concentration at 13 day ([2]; 90 mg/m^2 twice daily): 2500 ng/mL
- concentration at 21 day ([2]; 90 mg/m^2 twice daily): 4800 ng/mL
- concentration at 7 day ([2]; 110 mg/m^2 twice daily): 3000 ng/mL
- concentration at 13 day ([2]; 110 mg/m^2 twice daily): 2100 ng/mL
- concentration at 21 day ([2]; 110 mg/m^2 twice daily): 1600 ng/mL
- correlation of sorafenib steady-state concentrations with CECs [3]: inversely correlated
- metabolic conversion to sorafenib N-oxide, adult patients [4]: < 10%
- metabolic conversion to sorafenib N-oxide, children with AML [4]: 33%
- maximum tolerated dose (MTD) ([5]; twice daily): 200 mg/m^2
- Grade 3 DLTs [5]: elevated lipase, hyponatremia, hand-foot syndrome (HFS), rash, hypertension, and elevated ALT
- objective responses [5]: No objective responses were observed

Molecule: bevacizumab: VEGF-specific recombinant, humanized monoclonal antibody
- dose-limiting toxicities (refractory solid tumors; in vivo): no dose-limiting toxicities (DLTs) were observed
- objective responses (refractory solid tumors; pediatric phase I, single agent): No objective responses were observed

Molecule: CNC(=O)c1cc(Oc2ccc(NC(=O)Nc3ccc(Cl)c(C(F)(F)F)c3)cc2)cc[n+]1[O-] [sorafenib N-oxide]
- Sorafenib N-oxide Ctrough Day 7 [2, 11]: 0.50 (0.11 – 4.5) mg/L
- Sorafenib N-oxide Ctrough Day 13 [2, 11]: 0.54 (0.17 – 3.4) mg/L
- Sorafenib N-oxide Ctrough Day 7 [2, 12]: 0.57 (0.37 – 1.5) mg/L
- Sorafenib N-oxide Ctrough Day 13 [2, 12]: 0.37 (0.33 – 0.92) mg/L
- Sorafenib N-oxide Ctrough Day 21 [2, 12]: 0.40 (0.20 – 0.78) mg/L

Molecule: O=P1(N(CCCl)CCCl)NCCCO1 (stereo not shown) [cyclophosphamide, Cyclophosphamide]
- cyclophosphamide absorption rate constant [6]: 0.17 h⁻¹
- cyclophosphamide apparent volume of distribution ([6]; 50 mg/m2): 2.28 L/m^2
- recommended phase II dose, cyclophosphamide [7]: 50 mg/m^2
- published mean AUC at 600 mg/m^2 relative to median AUC of this study (12-fold higher oral dosage, ref 34 versus this study): ~ 11 times
- BSA normalized apparent oral clearance in adults (assuming average adult body surface area of 1.73 m^2, from ref 33): 3.57 L/h/m^2
- AUC(0-inf) (clinical): 62.5 µM·h
- clearance after intravenous administration in children ([8]; iv): 2.9-4.23 L/h/m^2
- mean apparent oral clearance in adults ([8]; po): 6.18 L/h
